One data set has as its system ACE. The following applies: peptides <3 kDa from fermented goat milk; cited from earlier work. The source says: Among them, VLPVPQKAV ...
Data set [1] deals with T1, Angiotensin Converting Enzyme from rabbit lung (Oryctolagus cuniculus, UniProt P12822).
T1 construct: Angiotensin Converting Enzyme from rabbit lung; purchased Sigma-Aldrich; host or cells: rabbit lung tissue
T1 sequence (P12822 34-1310): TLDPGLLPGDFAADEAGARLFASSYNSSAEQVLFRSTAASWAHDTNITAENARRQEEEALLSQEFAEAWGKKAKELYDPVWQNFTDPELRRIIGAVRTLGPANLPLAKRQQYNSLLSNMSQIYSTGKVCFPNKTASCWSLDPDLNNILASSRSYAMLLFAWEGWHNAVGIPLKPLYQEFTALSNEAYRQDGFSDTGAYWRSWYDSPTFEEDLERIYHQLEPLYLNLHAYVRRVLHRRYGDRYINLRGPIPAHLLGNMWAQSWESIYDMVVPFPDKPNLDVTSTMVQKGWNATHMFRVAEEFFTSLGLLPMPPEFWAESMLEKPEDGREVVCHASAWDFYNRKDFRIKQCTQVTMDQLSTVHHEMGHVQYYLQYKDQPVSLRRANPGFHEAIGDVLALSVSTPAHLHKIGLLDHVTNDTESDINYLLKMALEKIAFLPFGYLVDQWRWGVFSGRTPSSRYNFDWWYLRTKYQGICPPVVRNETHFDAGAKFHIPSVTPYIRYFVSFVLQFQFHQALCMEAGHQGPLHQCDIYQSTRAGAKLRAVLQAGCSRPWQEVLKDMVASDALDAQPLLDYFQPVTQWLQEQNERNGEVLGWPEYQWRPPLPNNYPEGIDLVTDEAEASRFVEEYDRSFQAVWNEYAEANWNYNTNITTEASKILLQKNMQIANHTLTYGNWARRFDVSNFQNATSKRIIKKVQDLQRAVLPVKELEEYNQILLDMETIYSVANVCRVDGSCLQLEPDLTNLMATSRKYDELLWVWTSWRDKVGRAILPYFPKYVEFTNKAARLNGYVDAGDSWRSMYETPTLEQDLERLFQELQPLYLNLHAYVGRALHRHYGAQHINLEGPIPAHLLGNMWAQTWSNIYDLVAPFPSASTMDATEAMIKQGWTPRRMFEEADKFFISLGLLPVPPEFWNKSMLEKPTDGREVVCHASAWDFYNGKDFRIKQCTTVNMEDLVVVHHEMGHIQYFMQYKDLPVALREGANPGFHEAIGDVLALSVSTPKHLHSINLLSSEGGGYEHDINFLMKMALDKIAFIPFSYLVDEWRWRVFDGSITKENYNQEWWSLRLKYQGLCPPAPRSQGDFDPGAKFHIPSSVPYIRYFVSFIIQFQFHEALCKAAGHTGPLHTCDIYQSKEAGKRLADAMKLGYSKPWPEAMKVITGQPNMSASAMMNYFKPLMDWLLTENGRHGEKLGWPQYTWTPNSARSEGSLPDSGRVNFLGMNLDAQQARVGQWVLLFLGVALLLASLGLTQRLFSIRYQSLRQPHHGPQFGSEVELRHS
Briefly: ACE-inhibitory activity assay (RP-HPLC, HHL substrate). The class given is biochemical. The following applies: HHL 6.5 mM, ACE 0.2 U, 37°C, 60 min, pH 8.3; HA at 228 nm by RP-HPLC; mean ± SD; sample concentration not given. As to the method:
(§1) ACE inhibitory activity was measured using an RP-HPLC method with Hippuryl-His-Leu (HHL) as a substrate, which generated hippuric acid (HA) under enzymatic hydrolysis ([19]). The sample was dissolved in a borax-boric acid buffer containing 0.15 M NaCl (pH = 8.3). Firstly, add 10 μL ACE (0.2 U) to the sample tube and blank tube, respectively. At the same time, add 10 μL of sample to the sample tube, and add 10 μL of buffer and 80 μL of 1 M HCl to the blank tube, then pre-incubate at 37°C for 5 min. The reaction was initiated by adding 30 μL HHL (6.5 mM) and incubated for 60 min at the same temperature until 80 μL 1 M HCl was added to terminate the reaction.
ACE inhibitory activity (%) was confirmed by monitoring the formation of HA at 228 nm as detected by RP-HPLC on a C18 column (250 × 4.6 mm, 5 μm, Ecosil). The mobile phase was 25% acetonitrile and 75% water with 0.01% trifluoroacetic acid with a flow rate of 1 mL/min. The inhibition activity was calculated using the following equation:
Inhibition activity(%)=A-B-A0/A-A0×100%
Where, A = the HA peak area of the control; B = the HA peak area of the sample; A0 = the HA peak area of control with HCL before pre-incubated.
The inhibitory activity of the hydrolysates or collected fractions was expressed as percentage of ACE inhibition at a given protein concentration ([20]).

Data set [2] addresses T1, Angiotensin Converting Enzyme from rabbit lung. Briefly: Inhibitory kinetics study (Lineweaver-Burk plot). The class given is biochemical. The following applies: different HHL and peptide concentrations. As to the method:
Briefly, the enzyme activities were measured with different concentrations of the substrate (HHL) and the ACE inhibitory pattern in the presence of the inhibitor was determined with a Lineweaver–Burk plot.

Data set [3] shares this target. Briefly: ACE inhibitory activity after in vitro gastrointestinal digest. The class given is biochemical. As to the method:
as §1
In vitro digestion of the potent purified ACE inhibitory peptide was carried out according to the reported method, with some adjustments ([22], [23]). Peptide (0.4 mL, 1.5 mg mL^−1) was incubated with 2% (w/w) α-amylase, pepsin, or trypsin at 37°C.
In successive digestion tests, the peptide was first dissolved in buffer solution (pH 6.8) to 2 mg mL^−1 and incubated with α-amylase for 5 min. Then the pH was decreased to pH 2 with the addition of 1 M HCl. Subsequently, the gastric digestion was initiated by adding pepsin at an enzyme-substrate ratio of 2:100 (w/w). The reaction was stopped after 2 h by raising the pH to 8.0 with 1 M NaOH, and trypsin was added to the reactor to continue gastrointestinal digestion for 4 h. Last, the reaction mixture was heated for 15 min in boiling water to inactivate the enzyme.

Data set [4] concerns A7r5 cells. Briefly: Cell cytotoxicity test (CCK-8). The data set is classed as cell-based, rat. Particulars: 1–200 μg mL^−1, 24 h, CCK-8, P > 0.05. As to the method: The cytotoxic effects of FPQYLQYPY in cell culture were evaluated using the Cell Counting Kit-8. First, A7r5 cells were seeded at 1 × 10^4 cells per well into 96-well plates (Costar, Corning, NY, USA) and cultured in a 5% CO2 incubator at 37°C for 24 h. Then, the medium of each well was replaced by 100 μL of fresh medium with different concentrations of FPQYLQYPY (0, 1, 5, 10, 50, 100, or 200 μg mL^−1). After further incubation for 24 h, 10 μL CCK-8 solution was added to each well. Then, the plate was incubated for another 2 h.

In data set [5] the test system is A7r5 cells. Put plainly: Wound healing assay of Ang II-stimulated VSMCs. The data set is classed as cell-based, rat. The following applies: 100 μg mL^−1, Ang II 1 μM, 24 h, ImageJ. As to the method: Migration of A7r5 cells was evaluated using the wound healing assay ([25]). Three lines were drawn horizontally on the back of each hole on the 6-well plate with a marker. Cells in logarithmic growth phase were evenly seeded into 6-well plates with 2 × 10^5 cells per well, and grown in complete medium until the cells covered the bottom of the plate, then the medium was replaced by quiescing medium for overnight.
Afterwards, a sterile 200 μL spear head was used to quickly delimit at an average equal distance in the vertical direction according to the marking line, and washed with PBS to remove the floating cells. […] The migration distance was analyzed by ImageJ software.

Data set [6] relates to A7r5 cells. Put plainly: Transwell cell migration assay of Ang II-stimulated VSMCs. The class given is cell-based, rat. The following applies: 48 h, Ang II in lower chamber, crystal violet, absorbance 570 nm. As to the method:
A7r5 cells were collected and suspended in DMEM (1% FBS), and then the density was adjusted to 2 × 10^5 cells ml^−1. In each group, cell suspensions with or without FPQYLQYPY were cultured in the upper chamber of a Transwell (8.0 μm, Corning, NY, USA) ([26]), and at the same time, the lower chamber was filled with or without Ang II for 48 h. […] After rinsing with PBS, a cotton swab was used to remove the upper unmigrated cells. The migratory cells were observed and photographed under an inverted microscope. Last, a 33% acetic acid solution was added to quantify the crystal violet, and the absorbance of samples was measured at a wavelength of 570 nm using a microplate reader.

Data set [7] has as its system A7r5 cells. Briefly: Real time quantitative RT-PCR of differentially expressed genes. The data set is classed as cell-based, rat. The following applies: FPQYLQYPY-treated group vs Ang II-treated group. As to the method:
Total RNA was extracted from A7r5 cells using TRIzol reagent, according to the manufacturer's specifications. The information of primer sequences is shown in Supplementary Table 1. RT reactions were performed in a GeneAmp® PCR System 9700 (Applied Biosystems, USA). Then, Real-time PCR was performed using the LightCycler® 480 II Real-time PCR Instrument (Roche, Swiss). The relative expression level was calculated using the 2^−ΔΔCt.

Data set [8] deals with A7r5 cells. The following applies: co-treatment 10, 50, 100 μg mL^−1 with Ang II 0.1 μM, 24 h, CCK-8.
Method: The rat aortic vascular smooth muscle cell line A7r5, was purchased from Cell bank of Chinese Academy of Sciences (Shanghai, China). A7r5 cells between passage 8 and 20 were grown in DMEM supplemented with 10% FBS and antibiotics until they reached confluence. For experiments, the confluent cells were placed in a quiescing medium (DMEM + 1% FBS + antibiotics) ([24]) for 24 h, before treatment with different concentrations of [sequence] and Ang II for different time periods.
Cell proliferation was measured by the Cell Counting Kit-8. A7r5 cells were seeded at 5 × 10^3 cells per well into 96-well plates and grown in DMEM with 10% of FBS for 24 h, then the medium was replaced by quiescing medium overnight. The cells were co-treated with different concentrations of [sequence] (0, 10, 50, 100 μg mL^−1) and Ang II (0.1 μM) for 24 h. The absorbance of samples at a wavelength of 450 nm was measured using a microplate reader. The cell survival rate (%) was determined by the percentage of living cells in the test wells compared to the control wells.
Data set [9] concerns the target T2, Angiotensin Converting Enzyme from rabbit lung (rabbit) (UniProt P12822).
T2 sequence: T1 sequence (P12822 34-1310)

The target in data set [10] is T2, Angiotensin Converting Enzyme from rabbit lung (rabbit). This is another data set of the same source.
Setting [11] is: before digestion (inactivated enzyme), mean ± SD.

Ends that are not written are not given here.

As to VLPVPQKVVPQ, the ACE-inhibitory activity result in the data set on ACE is listed as “good ACE-inhibitory activity”.
Consider FPQYLQYPY [FPQYLQYPY, also synthesized], for which the ACE inhibition rate in data set [1] was determined as 71.19 ± 0.71%. Moreover, in data set [2], the “Inhibition pattern against ACE” value is reported as “non-competitive”. Also, the “ACE inhibitory (%), oral digestion (α-Amylase), Digested” value in [3] (2% (w/w) α-amylase, pH 6.8, 5 min, 37°C, mean ± SD) came out at 57.95 ± 0.22%. Further, in [3] (setting [11]), the “ACE inhibitory (%), gastric digestion (Pepsin), Original” value amounted to 54.12 ± 1.56%; the “ACE inhibitory (%), intestinal digestion (Trypsin), Original” value came to 49.86 ± 1.68%; the “ACE inhibitory (%), oral digestion (α-Amylase), Original” value is 53.47 ± 7.32%. Further, in data set [3] (pepsin 2:100 (w/w), pH 2, 2 h, 37°C, mean ± SD), the “ACE inhibitory (%), gastric digestion (Pepsin), Digested” value came to 56.41 ± 1.91%. In data set [3] (trypsin 2% (w/w), pH 8.0, 4 h, 37°C, mean ± SD), the “ACE inhibitory (%), intestinal digestion (Trypsin), Digested” value was found to be 45.76 ± 0.42%. In [3] (α-amylase, pepsin, trypsin, 37°C, read-out ACE inhibition), the “Change of ACE inhibitory activity after incubation with the digestive enzymes” value is “no significant difference”. The “Cytotoxic effect on A7r5 cells” value in the data set on A7r5 cells [4] is listed as “no obvious cytotoxic effect”. Besides, in the data set with A7r5 cells [5], the “Distance of the wound healing area (migration)” value is reported as “restore the distance of the wound healing area to the level of the control group”. For the same molecule, in the data set with A7r5 cells [6], the “Cell migration in Transwell experiment” value is “the decrease in the level of cell migration was noteworthy”. In the data set with A7r5 cells [7], the “Cox5b mRNA expression” value is recorded as “downregulated”, the “Efna4 mRNA expression” value is recorded as “downregulated”, the “Igf1r mRNA expression” value is reported as “downregulated” and the “Itga3 mRNA expression” value is given as “downregulated”. Further, in the data set on A7r5 cells [7], the “Myl4 mRNA expression” value is listed as “upregulated”, the “Plcb3 mRNA expression” value is recorded as “downregulated”, the “Shc4 mRNA expression” value is given as “upregulated” and the “Taok3 mRNA expression” value is listed as “downregulated”. Besides, in the data set on A7r5 cells [7], the “Tgfb1 mRNA expression” value is on record as “upregulated”. Further, in the data set with A7r5 cells [8], the “Proliferation of Ang II-stimulated VSMCs” value was “significantly decreased the percentage of proliferating cells”.
For VLPVPQKAVPQ, the ACE-inhibitory activity result with ACE was “good ACE-inhibitory activity”.
In [9], FPQYLQYPY [ACE-inhibitory peptide Phe-Pro-Gln-Tyr-Leu-Gln-Tyr-Pro-Tyr (…)] showed an ACE inhibitory (%), undigested peptide ('Original') of the gastric digestion step (pepsin) of 54.1%; an ACE inhibitory (%), undigested peptide ('Original') of the intestinal digestion step (trypsin) of 49.9%; an ACE inhibitory (%), undigested peptide ('Original') of the oral digestion step (α-amylase) of 53.5%. In addition, the ACE-inhibitory ability (%) of the purified fraction F3 (HHL substrate, hippuric acid by RP-HPLC; concentration not given) in data set [10] turned out to be 71.2%.

Values taken from publication PMC9037752, “A Novel Angiotensin I-Converting Enzyme Inhibitory Peptide Derived From Goat Milk Casein Hydrolysate Modulates Angiotensin II-Stimulated Effects on Vascular Smooth Muscle Cells” (Frontiers in Nutrition, 2022).
